Assay [1] has as its target T1, cGKII (Homo sapiens, UniProt Q13237).
T1 construct: gene PRKG2; recombinant full-length, His-tagged, baculovirus insect cell expression; dimer
T1 sequence (Q13237 2-762): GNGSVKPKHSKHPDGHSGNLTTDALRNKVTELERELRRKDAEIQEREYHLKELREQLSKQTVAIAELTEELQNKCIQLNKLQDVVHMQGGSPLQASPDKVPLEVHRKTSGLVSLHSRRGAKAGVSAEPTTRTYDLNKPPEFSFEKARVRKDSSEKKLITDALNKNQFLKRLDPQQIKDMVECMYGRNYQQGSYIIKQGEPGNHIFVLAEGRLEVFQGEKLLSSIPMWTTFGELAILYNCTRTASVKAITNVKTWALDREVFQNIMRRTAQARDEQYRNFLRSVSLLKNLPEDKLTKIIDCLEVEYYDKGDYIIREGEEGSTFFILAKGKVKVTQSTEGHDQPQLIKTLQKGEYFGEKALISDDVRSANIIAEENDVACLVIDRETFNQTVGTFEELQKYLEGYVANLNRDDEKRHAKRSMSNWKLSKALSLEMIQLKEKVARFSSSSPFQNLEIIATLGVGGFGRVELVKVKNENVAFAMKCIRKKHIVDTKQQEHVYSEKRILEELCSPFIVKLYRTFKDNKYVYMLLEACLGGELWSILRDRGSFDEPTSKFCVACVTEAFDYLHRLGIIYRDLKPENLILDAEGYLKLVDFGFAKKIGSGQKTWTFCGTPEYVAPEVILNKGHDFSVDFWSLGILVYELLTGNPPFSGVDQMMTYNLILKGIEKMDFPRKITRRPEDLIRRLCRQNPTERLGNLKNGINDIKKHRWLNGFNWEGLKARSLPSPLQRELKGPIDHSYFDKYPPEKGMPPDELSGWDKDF
Put plainly: […]-ATP peptide (2A3) phosphorylation. Format: biochemical. As to conditions: read-out: pIC50 in vitro (converted).

Assay [2] has as its target T2, cGKI (Homo sapiens, UniProt Q13976).
T2 construct: gene PRKG1; recombinant full-length, commercial (Promega)
T2 sequence (Q13976 2-671): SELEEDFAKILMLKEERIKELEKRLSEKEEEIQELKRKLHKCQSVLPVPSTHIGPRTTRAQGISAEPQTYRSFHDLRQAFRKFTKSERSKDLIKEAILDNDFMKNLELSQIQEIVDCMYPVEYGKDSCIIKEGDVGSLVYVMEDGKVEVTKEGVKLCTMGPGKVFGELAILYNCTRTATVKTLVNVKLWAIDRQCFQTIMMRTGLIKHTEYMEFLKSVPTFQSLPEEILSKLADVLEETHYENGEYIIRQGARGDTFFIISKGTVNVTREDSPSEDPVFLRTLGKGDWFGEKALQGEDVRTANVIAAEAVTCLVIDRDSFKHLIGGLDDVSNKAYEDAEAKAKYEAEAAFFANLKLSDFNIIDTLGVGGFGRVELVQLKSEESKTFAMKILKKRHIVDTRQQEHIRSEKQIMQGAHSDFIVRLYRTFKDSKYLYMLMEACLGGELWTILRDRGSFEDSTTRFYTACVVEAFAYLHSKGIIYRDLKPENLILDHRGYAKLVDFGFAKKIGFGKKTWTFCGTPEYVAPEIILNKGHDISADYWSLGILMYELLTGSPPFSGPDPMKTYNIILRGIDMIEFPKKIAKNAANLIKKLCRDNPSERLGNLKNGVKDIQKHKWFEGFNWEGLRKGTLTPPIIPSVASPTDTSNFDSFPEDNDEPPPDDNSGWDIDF
The assay is described as follows: […]-ATP peptide (2A3) phosphorylation. Format: biochemical. The settings on record: 50 uM cGMP, pH 7.4, 5 mM MgCl2, 22 C.

As for `OCCNc1nccc(-c2ccc(-n3ccnc3)cc2)n1` [AP-C6], in assay [1], the IC50 is 316 nM. For the same compound, in assay [2], the pIC50 result is “potency of inhibition of cGKI and PKA was markedly lower than of cGKII”.

With `c1ccc2c(CCNc3nccc(-c4ccc5c(c4)OCCO5)n3)c[nH]c2c1` [AP-C4], in assay [1], the IC50 is 6310 nM.

Take `c1coc(CNc2nccc(-c3ccc(-n4ccnc4)cc3)n2)c1` [AP-C7]: the IC50 in assay [1] was 10000 nM.

In the case of `COc1ccc(CCNc2nccc(-c3ccc4c(c3)OCCO4)n2)cc1OC` [AP-C3], the IC50 in assay [1] was 501 nM.

Consider `COc1ccc(CCNc2nccc(-c3ccc4ccccc4c3)n2)cc1OC` [AP-C1], for which the IC50 in assay [1] is 316 nM.

For the compound `c1csc(-c2ccnc(NCCc3c[nH]c4ccccc34)n2)c1` [AP-C2], in assay [1], the IC50 is 6310 nM.

As to `C#CCNc1nccc(-c2ccc(-n3ccnc3)cc2)n1` [AP-C5], the IC50 in assay [1] is 63.1 nM. Moreover, in assay [2], the pIC50 entry was “potency of inhibition of cGKI and PKA was markedly lower than of cGKII”.

Source of the values: PMC5971447, “Selective inhibition of intestinal guanosine 3′,5′-cyclic monophosphate signaling by small-molecule protein kinase inhibitors” (The Journal of Biological Chemistry, 2018).
